From patent US12377095B2, “Use of ligustrazine nitrone derivatives in treatment and prevention of diabetic complication diseases” (QINGDAO HAILAN PHARMACEUTICALS CO., LTD., priority 2019, dated 2025)

What was measured:
STZ-induced DKD rats = assay: Serum biochemical parameters of STZ-induced DKD rats; type: in vivo, rat; conditions: six weeks after administration, dose-dependent
Experimental: SD rats (200±10 g) were used as model animals, which were fasted for 12 h before injection. STZ was dissolved in citrate buffer at 1% concentration, and rats were fasted and intraperitoneally injected with 55 mg/kg STZ and placed in the cage, the rats being ensured with adequate water intake for 24 h. STZ injections need to be fast and complete within 10 minutes of injection. The normal control group was injected with an equal volume of pH 4.5 citric acid-sodium citrate buffer. The state of the animals (multiple drinking and polyuria) was observed. After 3 weeks of STZ injection, blood was collected from the tail vein, and fasting blood glucose ≥16.7 mmol/L was measured as the standard for diabetic nephropathy in rats.
DKD rats were randomly assigned to 6 groups and given with different drugs. After 6 weeks of administration, the experiment was terminated and the protective effect of the drug on DKD rats was observed.
Six weeks after the administration, the rats were anesthetized, and the blood was taken from the abdominal aorta, and, after standing for 1 hour, was centrifuged at 3000 rmp for 10 min and stored at −70° C. Serum levels of creatinine, urea nitrogen, cholesterol and triglycerides were measured using an automated biochemical analyzer.

db/db mice [1] = assay: Serum iron content of db/db mice; type: in vivo, mouse; design: iron content in the serum: unit not given here; conditions: for iron content in the serum: 6 weeks, db/db model group 28.13±4.46
From the text: (§1) db/db mice are congenital obese type 2 DKD mice with spontaneous mutations in the leptin receptor (Leptin receptor, Lepr) due to a point mutation in the leptin receptor gene GT located on chromosome 4. The course of polyphagia, polyuria, diabetes and hyperglycemia is similar to that of humans, and it is currently the most widely used type 2 spontaneous animal model of DKD. The db/db mice have a series of complications with the aggravation of diabetes. The main pathological changes of renal tissue are the expansion of the glomerular mesangial interstitium, the thickening of the glomerular basement membrane, and the excessive accumulation of extracellular matrix. However, the glomerular mesangium of db/db mice changes relatively slowly, and the glomerular mesangium will not be dissolved or nodular glomerulosclerosis, and there is no progressive renal insufficiency.
(§2) Six-week-old db/db mice were purchased, and start the administration after adaptive feeding for 1 week (i.e., 7-week-old). TBN is administered twice a day (fixed by starting from 9:00-10:00 am and 3:00-4:00 pm, with an interval of 6 hours), and the positive control drug Losartan was administered once a day (fixed at 9:00-10:00 am) for 6 weeks.
At the end of the experiment, serum iron content was measured by using automatic biochemical analyzer.

db/db mice [2] = assay: 24 h urine microalbumin in db/db mice; type: in vivo, mouse; conditions: TBN 10, 30, 60 mg/kg, end of 6 weeks; especially 30 and 60 mg/kg (P<0.001)
From the text: as §1, with “insufficiency. […]” for “insufficiency.”
db/db mice were tested for 24 h urine microalbumin in the 4th and 6th week after drug treatment. […] The absorbance value (OD value) was measured at 450 nm wavelength; the blank control hole was used for adjusting zero, the microalbuminuria standard concentration was used as the abscissa, the OD value as the ordinate, the standard curve regression equation was calculated, and on the basis of the regression equation and the sample's OD value, the concentration of the sample was determined.

db/db mice [3] = assay: Serum EPO content of db/db mice; type: in vivo, mouse; design: serum EPO content: unit not given here; conditions: for serum EPO content: 6 weeks, db/db group 257.19±67.80 ng/L
From the text: as §1, §2
At the end of the experiment, after rats were anesthetized, the blood was taken from the abdominal aorta, allowed to stand for 1 h, centrifuged at 3000 rmp for 10 min and with the supernatant collected, and serum erythropoietin levels were measured according to the kit instructions.

STZ-induced SHR rats = assay: Serum iron ion content in STZ-induced SHR rats; type: in vivo, rat; conditions: TBN group (T60), 60 mg/kg
Experimental: 6 W-age SHR rats were abstained from food but not water for 12 h before injection, and then intraperitoneally injected with 55 mg/kg STZ after weighing (STZ required for fast injection, to be completed within 10 min), then put back to the cage to ensure that rat has sufficient drinking water in the period of 24 h, and the rats of normal control group were injected with citric acid buffer (pH 4.5) in the same volume. After 3 weeks of STZ injection, retinal venous blood was collected, and blood glucose ≥16.7 mmol/L was used as a molding standard, where the model of SHR rats that meet the above criteria is considered successful.
The route of administration is intragastrical, TBN is administered twice a day (fixed at 9:00-10:00 am and 3:00-4:00 pm), and Losartan is administered once a day (fixed at 9:00-10:00 am), continuously for 6 weeks.
At the end of the experiment, after rats were anesthetized, blood was taken from the rear abdominal aortic pulse, allowed to stand for 1 h, centrifuged at 3000 rmp centrifuged for 10 min to collect supernatant, and the iron ion content was measured by using an automated biochemical device and the level of red cells in serum was detected by using kits.

EPO mRNA = EPO mRNA by RT-PCR in CoCl2-induced HepG2 cell hypoxia model; conditions: 30 μM, 24 h, HepG2 cells, 50 μM CoCl2
db/db mice [4] = assay: HE histopathology of kidney tissue in db/db mice; type: in vivo, mouse
From the text: as §1, §2
The HE dyeing process is as shown in Example 9.

`Cc1nc(C)c(/C=[N+](\[O-])C(C)(C)C)nc1C` [TBN] was tested, and the serum cholesterol (STZ-induced DKD rats) was “significantly reduce”, the serum creatinine (STZ-induced DKD rats) was “significantly reduce” and the serum triglyceride (STZ-induced DKD rats) was “significantly reduce”. For the same compound, the serum urea nitrogen (STZ-induced DKD rats) was “significantly reduce”, the “iron content in the serum” value (db/db mice [1]; 10 mg/kg) was 30.84±5.92 and the “iron content in the serum” value (db/db mice [1]; 30 mg/kg) was 36.20±11.89. The “effect of increasing iron ions compared with positive control drug” value (db/db mice [1]; each dose group of TBN vs Losartan) was “stronger than the positive control drug group”, the “24 h urine microalbumin production” value (db/db mice [2]) was “dose-dependently reduced” and the “serum EPO content” value (db/db mice [3]; 10 mg/kg) was 265.04±79.32. For the same compound, the “serum EPO content” value (db/db mice [3]; 30 mg/kg) was 288.80±36.78, the “increase in serum EPO content compared with positive control drug” value (db/db mice [3]; each dose group of TBN) was “stronger than that of the positive control drug” and the “serum EPO level” value (db/db mice [3]; spontaneous db/db mice, TBN administration) was “tendency to increase”. For the same compound, the “content of iron ions in serum vs model group” value (STZ-induced SHR rats) was “significantly increased”, the “expression of EPO mRNA” value (EPO mRNA) was “significantly increase” and the “degree of infiltration of kidney inflammatory cells vs db/db group” value (db/db mice [4]; 30 mg/kg and 60 mg/kg dose groups) was “obviously improved”. The “pathological structure of kidney injury (H&E)” value (db/db mice [4]; TBN dose groups (10, 30, 60 mg/kg), in various degrees) was “improvement” and the “glomerular area (glomerular surface)” value (db/db mice [4]; TBN treatment groups, dose-dependent, more significantly for 30 mg/kg and 60 mg/kg) was “reduced”.
